For 67 molecules, inhibition and IC50 results are on record in ChEMBL document CHEMBL4011597, “Synthesis, screening and docking of fused pyrano[3,2-d]pyrimidine derivatives as xanthine oxidase inhibitor” (Eur J Med Chem, 2017).

The structures appear in SMILES notation.

Assay [1] deals with T1, Xanthine dehydrogenase/oxidase (Bos taurus, UniProt P80457). The assay can be described thus: Inhibition of bovine xanthine oxidase assessed as reduction in uric acid formation at 100 uM using xanthine as substrate pretreated for 5 mins followed by substrate addition measured by UV-vis spectrophotometric method relative to control. Conditions: cattle.
T1 sequence (P80457 whole entry): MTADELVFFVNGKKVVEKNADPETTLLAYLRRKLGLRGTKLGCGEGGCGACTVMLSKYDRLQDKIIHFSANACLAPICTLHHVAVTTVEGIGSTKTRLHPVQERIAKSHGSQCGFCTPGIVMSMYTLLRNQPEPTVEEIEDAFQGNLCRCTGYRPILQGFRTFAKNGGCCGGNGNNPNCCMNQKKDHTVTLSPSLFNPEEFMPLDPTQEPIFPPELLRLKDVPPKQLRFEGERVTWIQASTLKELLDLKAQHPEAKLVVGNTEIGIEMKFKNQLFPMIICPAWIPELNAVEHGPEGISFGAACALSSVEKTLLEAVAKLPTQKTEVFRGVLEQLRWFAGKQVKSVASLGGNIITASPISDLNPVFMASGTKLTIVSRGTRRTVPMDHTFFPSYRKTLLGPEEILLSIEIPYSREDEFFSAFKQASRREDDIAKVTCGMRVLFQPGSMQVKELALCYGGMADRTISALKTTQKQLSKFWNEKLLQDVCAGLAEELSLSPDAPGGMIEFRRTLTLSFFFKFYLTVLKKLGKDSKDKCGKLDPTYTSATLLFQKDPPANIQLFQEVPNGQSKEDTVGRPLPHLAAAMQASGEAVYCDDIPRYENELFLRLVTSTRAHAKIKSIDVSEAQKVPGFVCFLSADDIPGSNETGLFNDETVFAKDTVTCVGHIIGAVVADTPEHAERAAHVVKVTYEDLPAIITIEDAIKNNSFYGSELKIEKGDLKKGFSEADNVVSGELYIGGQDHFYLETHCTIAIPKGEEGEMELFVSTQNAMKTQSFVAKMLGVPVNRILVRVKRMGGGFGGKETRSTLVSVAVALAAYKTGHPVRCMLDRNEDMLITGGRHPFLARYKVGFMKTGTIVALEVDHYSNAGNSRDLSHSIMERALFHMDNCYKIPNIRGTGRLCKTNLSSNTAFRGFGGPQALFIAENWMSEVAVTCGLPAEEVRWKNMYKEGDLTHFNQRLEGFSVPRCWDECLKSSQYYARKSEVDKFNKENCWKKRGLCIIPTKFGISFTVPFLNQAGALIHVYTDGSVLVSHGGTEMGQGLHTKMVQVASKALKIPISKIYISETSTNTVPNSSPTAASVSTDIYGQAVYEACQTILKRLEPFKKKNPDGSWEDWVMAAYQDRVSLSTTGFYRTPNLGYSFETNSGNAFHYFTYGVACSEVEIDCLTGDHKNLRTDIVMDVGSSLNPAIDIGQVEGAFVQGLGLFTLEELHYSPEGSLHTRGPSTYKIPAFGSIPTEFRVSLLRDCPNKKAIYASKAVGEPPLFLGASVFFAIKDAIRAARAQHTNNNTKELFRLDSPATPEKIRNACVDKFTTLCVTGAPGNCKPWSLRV
Assay [2] addresses T1, Xanthine dehydrogenase/oxidase. Description: Inhibition of bovine xanthine oxidase assessed as reduction in uric acid formation at 1 uM using xanthine as substrate pretreated for 5 mins followed by substrate addition measured by UV-vis spectrophotometric method relative to control. The following applies: cattle.
Assay [3] has the same target. The assay can be described thus: Inhibition of bovine xanthine oxidase assessed as reduction in uric acid formation at 10 uM using xanthine as substrate pretreated for 5 mins followed by substrate addition measured by UV-vis spectrophotometric method relative to control. The following applies: cattle.
Assay [4] has the same target. Description: Inhibition of bovine xanthine oxidase assessed as reduction in uric acid formation using xanthine as substrate pretreated for 5 mins followed by substrate addition measured by UV-vis spectrophotometric method.

The term inhibition denotes the drop in the measured response relative to a control, in per cent. Regarding `COc1ccc(Nc2ncnc3c2C(c2ccc(Cl)cc2)c2ccc4ccccc4c2O3)cc1` (stereo not given), the inhibition at 100 µM in assay [1] is 16.7%.

What is called IC50 is the point on the concentration scale where inhibition reaches its midpoint. Consider `COc1ccc(Nc2ncnc3c2C(c2ccc(Cl)cc2)C2=C(CCCC2=O)O3)cc1` (stereo not given), for which, in assay [2], the inhibition at 1 µM came out at 22%. Further, the inhibition at 10 µM in assay [3] was found to be 34.5%. The inhibition at 100 µM in assay [1] is 69.4%. Also, in assay [4], the IC50 was 55 µM. For `COc1ccc(Nc2ncnc3c2C(c2ccccc2OC)C2=C(CCCC2=O)O3)cc1` (stereo not given) the same measures were 34.8%, 43.2%, 86.5% and 24 µM. In the case of `COc1ccc(Nc2ncnc3c2C(c2ccc(OC)cc2)c2c(n[nH]c2C)O3)cc1` (stereo not given), in assay [2], the inhibition at 1 µM came to 20.1%. In addition, the inhibition at 10 µM in assay [3] turned out to be 29.3%. Also, the inhibition at 100 µM in assay [1] was determined as 58.4%. Take `COc1ccc(Nc2ncnc3c2C(c2cc4ccccc4[nH]2)c2c(c(=O)oc4ccccc24)O3)cc1` (stereo not given): the inhibition at 100 µM in assay [1] worked out at 18.4%.

Consider `COc1ccc(Nc2ncnc3c2C(c2ccc(O)c(O)c2)c2c(c(=O)oc4ccccc24)O3)cc1` (stereo not given), for which the inhibition at 1 µM in assay [2] stood at 35%. For the same molecule, the inhibition at 10 µM in assay [3] came to 45.9%. Besides, in assay [1], the inhibition at 100 µM is 90.4%. The IC50 in assay [4] was found to be 18 µM.

In the case of `COc1ccc(Nc2ncnc3c2C(c2ccc(O)c(O)c2)c2c(n[nH]c2C)O3)cc1` (stereo not given), the inhibition at 1 µM in assay [2] was found to be 23.5%. In addition, the inhibition at 10 µM in assay [3] came to 31.6%. For the same molecule, in assay [1], the inhibition at 100 µM was determined as 60.6%. The IC50 in assay [4] is 68 µM. Regarding `COc1ccc(Nc2ncnc3c2C(c2ccc(OC)cc2)C2=C(CCCC2=O)O3)cc1` (stereo not given), the inhibition at 1 µM in assay [2] is 32.3%. Also, in assay [3], the inhibition at 10 µM stood at 43.5%. Further, the inhibition at 100 µM in assay [1] turned out to be 87.4%. In addition, the IC50 in assay [4] worked out at 25 µM. Take `COc1ccc(Nc2ncnc3c2C(c2ccncc2)c2c(c(=O)oc4ccccc24)O3)cc1` (stereo not given): the inhibition at 100 µM in assay [1] turned out to be 45.1%. As for `COc1ccc(Nc2ncnc3c2C(c2cccc([N+](=O)[O-])c2)c2c(n[nH]c2C)O3)cc1` (stereo not given), the inhibition at 100 µM in assay [1] came out at 28.9%. The same measure, in the same setting: then `COc1ccc(Nc2ncnc3c2C(c2cccc(C)c2)c2ccc4ccccc4c2O3)cc1` (stereo not given), with 21.8%. In the case of `COc1ccc(Nc2ncnc3c2C(c2cccc([N+](=O)[O-])c2)c2c(c(=O)oc4ccccc24)O3)cc1` (stereo not given), the inhibition at 1 µM in assay [2] was 20.2%. Besides, the inhibition at 10 µM in assay [3] was 31.5%. Moreover, the inhibition at 100 µM in assay [1] turned out to be 63.6%. The IC50 in assay [4] stood at 65 µM. With `COc1ccc(Nc2ncnc3c2C(c2cccc([N+](=O)[O-])c2)C2=C(CCCC2=O)O3)cc1` (stereo not given), the inhibition at 1 µM in assay [2] stood at 21.9%. In assay [3], the inhibition at 10 µM amounted to 32.7%. For the same molecule, the inhibition at 100 µM in assay [1] stood at 64.2%. The half-maximal inhibitory concentration (IC50) in assay [4] was found to be 60 µM. With `COc1ccc(Nc2ncnc3c2C(c2cccc([N+](=O)[O-])c2)c2c(ccc4ccccc24)O3)cc1` (stereo not given), in assay [1], the inhibition at 100 µM worked out at 13.3%. On the same count and under the same terms, for `COc1ccc(Nc2ncnc3c2C(c2cccc(Cl)c2)c2c(n[nH]c2C)O3)cc1` (stereo not given) the value was 33.1%; for `COc1ccc(Nc2ncnc3c2C(c2cccc4ccccc24)c2c(c(=O)oc4ccccc24)O3)cc1` (stereo not given), 10%.

Regarding `COc1ccc(Nc2ncnc3c2C(c2ccc(OC)c(OC)c2)c2c(c(=O)oc4ccccc24)O3)cc1` (stereo not given), the inhibition at 1 µM in assay [2] turned out to be 36.7%. Moreover, the inhibition at 10 µM in assay [3] was found to be 48%. In assay [1], the inhibition at 100 µM stood at 94%. The IC50 in assay [4] is 17 µM. For `COc1ccc(Nc2ncnc3c2C(c2ccc(Br)cc2)c2c(n[nH]c2C)O3)cc1` (stereo not given), the inhibition at 100 µM in assay [1] was 30.3%.

As to `COc1ccc(Nc2ncnc3c2C(c2cc4ccccc4[nH]2)c2c(n[nH]c2C)O3)cc1` (stereo not given), the inhibition at 100 µM in assay [1] was found to be 11.2%. Same read-out and setting: then `COc1ccc(Nc2ncnc3c2C(c2cccc(C)c2)c2c(n[nH]c2C)O3)cc1` (stereo not given), with 43.6%; and `COc1ccc(Nc2ncnc3c2C(c2ccc(O)c(O)c2)c2c(ccc4ccccc24)O3)cc1` (stereo not given), with 37.2%. The same measure, in the same setting: for `COc1ccc(Nc2ncnc3c2C(c2ccc(O)cc2)c2c(ccc4ccccc24)O3)cc1` (stereo not given) the value was 29.1%; for `COc1ccc(Nc2ncnc3c2C(c2cccc(Cl)c2)c2ccc4ccccc4c2O3)cc1` (stereo not given), 17.1%.

As for `COc1ccc(Nc2ncnc3c2C(c2ccc(Br)cc2)c2ccc4ccccc4c2O3)cc1` (stereo not given), the inhibition at 100 µM in assay [1] was found to be 15.5%. Same read-out and setting: for `COc1ccc(Nc2ncnc3c2C(c2ccncc2)c2c(n[nH]c2C)O3)cc1` (stereo not given) the value was 15.1%; for `COc1ccc(Nc2ncnc3c2C(c2cccs2)C2=C(CCCC2=O)O3)cc1` (stereo not given), 59.1%. On the same count and under the same terms, for `COc1ccc(Nc2ncnc3c2C(c2ccc(O)cc2)c2c(n[nH]c2C)O3)cc1` (stereo not given) the value was 52.1%; for `COc1ccc(Nc2ncnc3c2C(c2ccc(Br)cc2)c2c(ccc4ccccc24)O3)cc1` (stereo not given), 16.5%; for `COc1ccc(Nc2ncnc3c2C(c2ccc([N+](=O)[O-])cc2)c2c(n[nH]c2C)O3)cc1` (stereo not given), 25.7%.

For the molecule `COc1ccc(Nc2ncnc3c2C(c2cc(OC)c(OC)c(OC)c2)c2c(n[nH]c2C)O3)cc1` (stereo not given), the inhibition at 100 µM in assay [1] is 47.9%.

Regarding `COc1ccc(Nc2ncnc3c2C(c2ccc(F)cc2)c2ccc4ccccc4c2O3)cc1` (stereo not given), in assay [1], the inhibition at 100 µM came to 19%. On the same count and under the same terms, for `COc1ccc(Nc2ncnc3c2C(c2cc4ccccc4[nH]2)C2=C(CCCC2=O)O3)cc1` (stereo not given) the value was 19.3%; for `COc1ccc(Nc2ncnc3c2C(c2ccc(O)c(OC)c2)c2c(ccc4ccccc24)O3)cc1` (stereo not given), 33.8%. On the same count and under the same terms, for `COc1ccc(Nc2ncnc3c2C(c2cccc([N+](=O)[O-])c2)c2ccc4ccccc4c2O3)cc1` (stereo not given) the value was 13%.

On to `COc1ccc(Nc2ncnc3c2C(c2ccc(OC)cc2)c2ccc4ccccc4c2O3)cc1` (stereo not given), for which the inhibition at 100 µM in assay [1] was 31.1%. Still for that read-out and setting: for `COc1ccc(Nc2ncnc3c2C(c2cc(OC)c(OC)c(OC)c2)c2c(ccc4ccccc24)O3)cc1` (stereo not given) the value was 25.8%. `COc1ccc(Nc2ncnc3c2C(c2ccccc2)c2c(n[nH]c2C)O3)cc1` (stereo not given): in assay [1], the inhibition at 100 µM came out at 38.1%.

For `COc1ccc(Nc2ncnc3c2C(c2ccc(Cl)cc2)c2c(n[nH]c2C)O3)cc1` (stereo not given), in assay [1], the inhibition at 100 µM was found to be 32.2%.

Take `COc1ccc(Nc2ncnc3c2C(c2ccncc2)C2=C(CCCC2=O)O3)cc1` (stereo not given): the inhibition at 100 µM in assay [1] was 46%. Same read-out and setting: then `COc1ccc(Nc2ncnc3c2C(c2cccc(C)c2)c2c(ccc4ccccc24)O3)cc1` (stereo not given), with 22.6%; and `COc1ccc(Nc2ncnc3c2C(c2cc(OC)c(OC)c(OC)c2)c2ccc4ccccc4c2O3)cc1` (stereo not given), with 25.2%; and `COc1ccc(Nc2ncnc3c2C(c2ccc(O)c(OC)c2)c2ccc4ccccc4c2O3)cc1` (stereo not given), with 33.2%. The same measure, in the same setting: then `COc1ccc(Nc2ncnc3c2C(c2cccs2)c2c(c(=O)oc4ccccc24)O3)cc1` (stereo not given), with 58.8%. On the same count and under the same terms, for `COc1ccc(Nc2ncnc3c2C(c2ccc(F)cc2)c2c(n[nH]c2C)O3)cc1` (stereo not given) the value was 35.7%; for `COc1ccc(Nc2ncnc3c2C(c2cccc4ccccc24)C2=C(CCCC2=O)O3)cc1` (stereo not given), 12.1%; for `COc1ccc(Nc2ncnc3c2C(c2ccc([N+](=O)[O-])cc2)c2ccc4ccccc4c2O3)cc1` (stereo not given), 10.5%. As for `COc1ccc(Nc2ncnc3c2C(c2ccccc2OC)c2ccc4ccccc4c2O3)cc1` (stereo not given), the inhibition at 100 µM in assay [1] was determined as 30%. For `COc1ccc(Nc2ncnc3c2C(c2cccc(O)c2)c2ccc4ccccc4c2O3)cc1` (stereo not given), the inhibition at 100 µM in assay [1] is 27.4%.

In the case of `COc1ccc(Nc2ncnc3c2C(c2cccc4ccccc24)c2c(n[nH]c2C)O3)cc1` (stereo not given), in assay [1], the inhibition at 100 µM stood at 10.1%.

As for `COc1ccc(Nc2ncnc3c2C(c2ccccc2)c2ccc4ccccc4c2O3)cc1` (stereo not given), the inhibition at 100 µM in assay [1] turned out to be 20.5%. On the same count and under the same terms, then `COc1ccc(Nc2ncnc3c2C(c2ccc(OC)c(OC)c2)c2ccc4ccccc4c2O3)cc1` (stereo not given), with 39.7%. For the molecule `COc1ccc(Nc2ncnc3c2C(c2cccs2)c2c(n[nH]c2C)O3)cc1` (stereo not given), the inhibition at 100 µM in assay [1] is 19.8%. Same read-out and setting: then `COc1ccc(Nc2ncnc3c2C(c2cccc(O)c2)c2c(n[nH]c2C)O3)cc1` (stereo not given), with 50.1%. Same read-out and setting: then `COc1ccc(Nc2ncnc3c2C(c2cccc(Cl)c2)c2c(ccc4ccccc24)O3)cc1` (stereo not given), with 17.6%. Still for that read-out and setting: then `COc1ccc(Nc2ncnc3c2C(c2ccccc2OC)c2c(ccc4ccccc24)O3)cc1` (stereo not given), with 30.1%. As for `COc1ccc(Nc2ncnc3c2C(c2ccc(O)cc2)c2ccc4ccccc4c2O3)cc1` (stereo not given), the inhibition at 100 µM in assay [1] came out at 28.6%. Still for that read-out and setting: then `COc1ccc(Nc2ncnc3c2C(c2ccc(F)cc2)c2c(ccc4ccccc24)O3)cc1` (stereo not given), with 19.6%. On the same count and under the same terms, for `COc1ccc(Nc2ncnc3c2C(c2ccccc2)c2c(ccc4ccccc24)O3)cc1` (stereo not given) the value was 20.2%.

Turning to `COc1ccc(Nc2ncnc3c2C(c2ccc(OC)c(OC)c2)c2c(ccc4ccccc24)O3)cc1` (stereo not given), the inhibition at 100 µM in assay [1] was 39.4%.

Regarding `COc1ccc(Nc2ncnc3c2C(c2ccccc2OC)c2c(n[nH]c2C)O3)cc1` (stereo not given), the inhibition at 100 µM in assay [1] was determined as 55.2%.

With `COc1ccc(Nc2ncnc3c2C(c2ccc(O)c(OC)c2)c2c(n[nH]c2C)O3)cc1` (stereo not given), the inhibition at 10 µM in assay [3] worked out at 32.5%. Besides, the inhibition at 100 µM in assay [1] turned out to be 65.5%. For the same molecule, the IC50 in assay [4] was found to be 60 µM. In the case of `COc1ccc(Nc2ncnc3c2C(c2ccc(Cl)cc2)c2c(ccc4ccccc24)O3)cc1` (stereo not given), the inhibition at 100 µM in assay [1] is 17.2%. Same read-out and setting: for `COc1ccc(Nc2ncnc3c2C(c2ccc(O)c(O)c2)c2ccc4ccccc4c2O3)cc1` (stereo not given) the value was 36.5%.

As to `O=c1cc(-c2ccc(O)cc2)oc2cc(O)cc(O)c12` [APIGENIN], in assay [4], the IC50 was 10.2 µM. For the molecule `COc1ccc(Nc2ncnc3c2C(c2ccc(OC)cc2)c2c(ccc4ccccc24)O3)cc1` (stereo not given), the inhibition at 100 µM in assay [1] was 32.6%. As to `COc1ccc(Nc2ncnc3c2C(c2ccc([N+](=O)[O-])cc2)c2c(ccc4ccccc24)O3)cc1` (stereo not given), the inhibition at 100 µM in assay [1] is 11%. Regarding `COc1ccc(Nc2ncnc3c2C(c2cccc(O)c2)c2c(ccc4ccccc24)O3)cc1` (stereo not given), the inhibition at 100 µM in assay [1] is 28.1%.
